Results: US12065436B2, “Cardiac sarcomere inhibitors” (Cytokinetics, Inc., priority 2018, dated 2024)

Target: bovine cardiac myofibrils (full-length cardiac myosin ATPase in the native sarcomere) (Bos taurus (Bovine), UniProt Q9BE39)
Experiment: Skinned bovine cardiac myofibril ATPase assay (PK/LDH-coupled)
Type: biochemical
Conditions: Ca2+ activating to 75% of maximal rate; for CDMF75 IC15: concentration giving 15% inhibition; for IC50: read-out: CDMF75 IC50
Summary of the method: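 Triton-skinned bovine left-ventricle myofibrils (1 mg/mL) in PM 12 buffer (12 mM PIPES, 2 mM MgCl2, pH 6.8) with 50 μM ATP, 0.6 mM EGTA and CaCl2 set for 50% or 75% activation. Steady-state ATPase inhibition followed by PK/LDH-coupled NADH oxidation at 340 nm.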

bovine cardiac myofibrils (full-length cardiac myosin ATPase in the native sarcomere), sequence (Q9BE39 whole entry): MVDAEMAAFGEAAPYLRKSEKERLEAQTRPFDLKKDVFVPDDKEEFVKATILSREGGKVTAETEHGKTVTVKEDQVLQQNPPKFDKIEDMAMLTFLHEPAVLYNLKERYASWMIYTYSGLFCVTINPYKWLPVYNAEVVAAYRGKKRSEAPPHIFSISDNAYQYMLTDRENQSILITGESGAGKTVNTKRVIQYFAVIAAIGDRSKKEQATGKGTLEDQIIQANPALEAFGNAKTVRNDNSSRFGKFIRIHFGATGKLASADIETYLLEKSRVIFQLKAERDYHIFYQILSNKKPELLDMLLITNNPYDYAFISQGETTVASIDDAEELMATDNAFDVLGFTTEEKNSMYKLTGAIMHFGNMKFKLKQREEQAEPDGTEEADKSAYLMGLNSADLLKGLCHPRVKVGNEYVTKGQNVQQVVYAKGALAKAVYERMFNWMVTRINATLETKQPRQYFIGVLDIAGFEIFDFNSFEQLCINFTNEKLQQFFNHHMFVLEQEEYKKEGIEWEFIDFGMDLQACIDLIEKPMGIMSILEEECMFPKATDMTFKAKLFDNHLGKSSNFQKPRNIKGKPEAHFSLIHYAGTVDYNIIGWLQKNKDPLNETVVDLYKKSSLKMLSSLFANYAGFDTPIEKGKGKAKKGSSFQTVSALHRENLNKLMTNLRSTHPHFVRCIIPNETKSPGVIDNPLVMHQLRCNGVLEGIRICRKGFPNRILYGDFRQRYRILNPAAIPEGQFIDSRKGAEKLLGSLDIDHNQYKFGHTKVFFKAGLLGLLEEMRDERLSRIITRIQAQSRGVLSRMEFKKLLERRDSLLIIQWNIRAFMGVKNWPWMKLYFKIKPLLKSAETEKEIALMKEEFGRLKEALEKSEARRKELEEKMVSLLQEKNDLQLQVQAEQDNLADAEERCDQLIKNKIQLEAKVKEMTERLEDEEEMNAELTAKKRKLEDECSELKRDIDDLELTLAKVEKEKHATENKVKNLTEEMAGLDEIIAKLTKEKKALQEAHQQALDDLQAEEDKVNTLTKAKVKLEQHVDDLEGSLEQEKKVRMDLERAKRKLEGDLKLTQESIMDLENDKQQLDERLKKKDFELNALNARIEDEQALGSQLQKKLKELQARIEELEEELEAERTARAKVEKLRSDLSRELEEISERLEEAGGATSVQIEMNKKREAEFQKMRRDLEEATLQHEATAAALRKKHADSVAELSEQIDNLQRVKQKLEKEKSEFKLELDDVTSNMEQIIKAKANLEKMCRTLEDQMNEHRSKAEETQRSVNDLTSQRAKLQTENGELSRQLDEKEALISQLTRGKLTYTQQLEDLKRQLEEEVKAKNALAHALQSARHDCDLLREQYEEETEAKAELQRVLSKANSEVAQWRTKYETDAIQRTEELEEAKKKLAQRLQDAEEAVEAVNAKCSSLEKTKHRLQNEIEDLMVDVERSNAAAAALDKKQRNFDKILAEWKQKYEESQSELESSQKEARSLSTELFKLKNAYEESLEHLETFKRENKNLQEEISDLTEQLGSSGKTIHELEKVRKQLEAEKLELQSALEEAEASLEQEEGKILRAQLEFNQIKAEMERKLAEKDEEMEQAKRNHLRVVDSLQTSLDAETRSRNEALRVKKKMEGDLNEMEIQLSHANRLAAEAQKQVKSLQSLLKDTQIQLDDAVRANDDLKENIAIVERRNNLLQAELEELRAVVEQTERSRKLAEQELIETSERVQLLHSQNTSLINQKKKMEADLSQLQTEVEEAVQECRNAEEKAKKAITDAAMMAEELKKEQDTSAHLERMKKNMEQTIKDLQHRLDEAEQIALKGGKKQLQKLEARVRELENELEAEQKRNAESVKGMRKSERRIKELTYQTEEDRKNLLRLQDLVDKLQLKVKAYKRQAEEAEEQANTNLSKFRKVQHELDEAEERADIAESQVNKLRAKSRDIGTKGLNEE
bovine cardiac myofibrils (full-length cardiac myosin ATPase in the native sarcomere), sequence (P85100 whole entry partner): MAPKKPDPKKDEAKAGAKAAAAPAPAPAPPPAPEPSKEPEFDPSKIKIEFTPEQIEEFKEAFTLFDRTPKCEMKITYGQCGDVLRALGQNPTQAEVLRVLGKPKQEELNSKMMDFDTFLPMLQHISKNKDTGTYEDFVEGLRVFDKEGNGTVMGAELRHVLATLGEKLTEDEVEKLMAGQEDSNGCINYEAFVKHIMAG
bovine cardiac myofibrils (full-length cardiac myosin ATPase in the native sarcomere), sequence (Q3SZE5 whole entry partner): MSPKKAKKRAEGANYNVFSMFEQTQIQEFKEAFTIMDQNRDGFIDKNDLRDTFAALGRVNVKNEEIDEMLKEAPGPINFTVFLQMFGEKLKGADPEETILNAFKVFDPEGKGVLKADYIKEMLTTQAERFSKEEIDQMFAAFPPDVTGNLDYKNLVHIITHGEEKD

CDMF75 IC15 | IC50 | Compound
300 nM | 1100 nM | CCc1nc(-c2ccc3c(c2)CC[C@H]3NC(=O)c2nnc(C)o2)no1 [Compound 618, (R)-N-(5-(5-ethyl-1,2,4-oxadiazol-3-yl)-2,3-dihydro-1H-inden-1-yl)-5-methyl-1,3,4-oxadiazole-2-carboxamide]
600 nM | 2500 nM | CCc1nc(-c2ccc3c(c2)CC[C@H]3NC(=O)c2nnc(C)s2)no1 [Compound 619, (R)-N-(5-(5-ethyl-1,2,4-oxadiazol-3-yl)-2,3-dihydro-1H-inden-1-yl)-5-methyl-1,3,4-thiadiazole-2-carboxamide]
200 nM | 600 nM | CCc1nc(-c2ccc3c(c2)CC[C@H]3NC(=O)c2cc(Cl)no2)no1 [Compound 620, (R)-3-chloro-N-(5-(5-ethyl-1,2,4-oxadiazol-3-yl)-2,3-dihydro-1H-inden-1-yl)isoxazole-5-carboxamide]
1600 nM | 6100 nM | CCc1nc(-c2ccc3c(c2)CC[C@H]3NC(=O)c2nnn(C)c2C)no1 [Compound 621, (R)-N-(5-(5-ethyl-1,2,4-oxadiazol-3-yl)-2,3-dihydro-1H-inden-1-yl)-1,5-dimethyl-1H-1,2,3-triazole-4-carboxamide]
900 nM | 3600 nM | CCc1nc(-c2ccc3c(c2)CC[C@H]3NC(=O)c2ncoc2C)no1 [Compound 622, (R)-N-(5-(5-ethyl-1,2,4-oxadiazol-3-yl)-2,3-dihydro-1H-inden-1-yl)-5-methyloxazole-4-carboxamide]
400 nM | 1600 nM | CCc1nc(-c2ccc3c(c2)CC[C@H]3NC(=O)c2ccccn2)no1 [Compound 623, (R)-N-(5-(5-ethyl-1,2,4-oxadiazol-3-yl)-2,3-dihydro-1H-inden-1-yl)picolinamide]
400 nM | 1500 nM | CCc1nc(-c2ccc3c(c2)CC[C@H]3NC(=O)c2cccnc2)no1 [Compound 624, (R)-N-(5-(5-ethyl-1,2,4-oxadiazol-3-yl)-2,3-dihydro-1H-inden-1-yl)nicotinamide]
800 nM | 3000 nM | CCc1nc(-c2ccc3c(c2)CC[C@H]3NC(=O)c2ccc(C)nc2)no1 [Compound 625, (R)-N-(5-(5-ethyl-1,2,4-oxadiazol-3-yl)-2,3-dihydro-1H-inden-1-yl)-6-methylnicotinamide]
500 nM | 1600 nM | CCc1nc(-c2ccc3c(c2)CC[C@H]3NC(=O)c2cncc(C)c2)no1 [Compound 626, (R)-N-(5-(5-ethyl-1,2,4-oxadiazol-3-yl)-2,3-dihydro-1H-inden-1-yl)-5-methylnicotinamide]
3500 nM | 15000 nM | CCc1nc(-c2ccc3c(c2)CC[C@H]3NC(=O)c2cnccc2C)no1 [Compound 627, (R)-N-(5-(5-ethyl-1,2,4-oxadiazol-3-yl)-2,3-dihydro-1H-inden-1-yl)-4-methylnicotinamide]
300 nM | 1000 nM | CCc1nc(-c2ccc3c(c2)CC[C@H]3NC(=O)c2ccncc2)no1 [Compound 628, (R)-N-(5-(5-ethyl-1,2,4-oxadiazol-3-yl)-2,3-dihydro-1H-inden-1-yl)isonicotinamide]
2100 nM | 9400 nM | CCc1nc(-c2ccc3c(c2)CC[C@H]3NC(=O)c2ccncc2C)no1 [Compound 629, (R)-N-(5-(5-ethyl-1,2,4-oxadiazol-3-yl)-2,3-dihydro-1H-inden-1-yl)-3-methylisonicotinamide]
500 nM | 1800 nM | CCc1nc(-c2ccc3c(c2)CC[C@H]3NC(=O)c2ccncn2)no1 [Compound 630, (R)-N-(5-(5-ethyl-1,2,4-oxadiazol-3-yl)-2,3-dihydro-1H-inden-1-yl)pyrimidine-4-carboxamide]
500 nM | 1800 nM | CCc1nc(-c2ccc3c(c2)CC[C@H]3NC(=O)c2cc(C)ncn2)no1 [Compound 631, (R)-N-(5-(5-ethyl-1,2,4-oxadiazol-3-yl)-2,3-dihydro-1H-inden-1-yl)-6-methylpyrimidine-4-carboxamide]
